The values that follow come from US9890185B2, “Urea derivatives useful as kinase inhibitors” (Respivert Limited, priority 2013, dated 2018).

For orientation: pIC50 means the negative decadic logarithm of the IC50, by convention in mol/L. As usually defined, the inhibition is the change of the read-out against control, counted positive when it falls.

Experiment [1] concerns the target p38 MAPKα isoform (MAPK14) (Homo sapiens (Human), UniProt Q16539). The experiment can be described thus: p38 MAPKα enzyme inhibition (FRET, Z-LYTE, Method 2). The format is biochemical. The method, boiled down:
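Z-LYTE FRET: p38 MAPKα (80 ng/mL for Method 1, 200 ng/mL for Method 2, pre-dilution) preincubated 2 hr RT with compound (4–0.004 μg/mL solutions), activity read via MAPKAP-K2 phosphorylation after 1 hr RT and 1 hr protease development. Coumarin/fluorescein ratio gives phosphorylation; % inhibition versus uninhibited control, IC50 from concentration-response curve.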

The next experiment addresses GSK 3α (Homo sapiens (Human), UniProt P49840). The experiment can be described thus: GSK 3α enzyme inhibition (FRET, Z-LYTE, Method 2). The format is biochemical. To be noted: read-out: IC50 Values for Enzyme Inhibition, GSK3α. The method, boiled down: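 Phosphorylation of a dual-labelled synthetic peptide by human GSK3α is read as a coumarin/fluorescein ratio after protease development. Compound stocks run 4 to 0.004 μg/mL, and ATP stock is 40 μM.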

The test system of experiment [2] is PBMCs. Nature of the experiment: IL-2 release in CD3/CD28 stimulated PBMC cells (assay c). Conditions: Homo sapiens, read-out: IC50 Values for Inhibition of Cytokine Release, PBMCs IL-2. The class given is cell-based. The protocol: (§1) PBMCs from healthy subjects are separated from whole blood using a density gradient (Lymphoprep, Axis-Shield Healthcare). Cells are added to a 96 well plate pre-coated with a mixture of CD3/CD28 monoclonal antibodies (0.3 μg/mL eBioscience and 3 μg/mL BD Pharmingen respectively). Compound at the desired concentration is then added to the wells and the plate left for 3 days under normal tissue culture conditions. Supernatants are harvested and IL-2 and IFN gamma release determined by Sandwich ELISA (Duo-set, R&D System). The IC50 is determined from the dose response curve.

The target of the next experiment is c-Src (Homo sapiens (Human), UniProt P12931). The experiment can be described thus: c-Src enzyme inhibition (FRET, Z-LYTE). The class given is biochemical. A digest of the protocol:
(§2)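 Each kinase is exposed to test compound for 2 hr at RT before substrate and ATP (pre-mix levels: c-Src 800 μM, Syk 60 μM) start a 1 hr reaction. A 1 hr protease step removes signal from non-phosphorylated peptide; inhibition against uninhibited control yields IC50.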

For experiment [3], the system named is PBMCs. Nature of the experiment: Cell mitosis assay in PBMCs (assay g). The format is cell-based. To be noted: Homo sapiens, PBMC, test compound 5 μg/mL. The method, boiled down: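 Metaphase arrest with 0.1 μg/mL demecolcine during the final 2 hr of a 20 hr compound exposure, which follows 48 hr of 2% PHA stimulation of healthy-donor human PBMCs. Mitotic lymphocytes counted by flow cytometry (anti-phospho-histone 3 plus propidium iodide). Inhibition expressed relative to 0.5% DMSO.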

Experiment [4] relates to PBMCs. Nature of the experiment: LPS-induced IL-8 release in PBMC cells (assay b). The format is cell-based, human. To be noted: Homo sapiens, PBMC; LPS-stimulated PBMCs; read-out: IC50 Values for Inhibition of Cytokine Release, PBMCs IL-8. The method, boiled down:
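Cytokines (TNFα, IL-8) in supernatants were quantified by sandwich ELISA after a 24 h challenge with 1 ng/mL E. coli LPS at 37° C, 5% CO2. Healthy-donor PBMCs had been exposed to compound for 2 h beforehand. IC50 values were fitted from the concentration-response curves.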

Experiment [5] has as its system PBMCs. Nature of the experiment: IFN gamma release in CD3/CD28 stimulated PBMC cells (assay c). The class given is cell-based. To be noted: Homo sapiens, read-out: IC50 Values for Inhibition of Cytokine Release, PBMCs IFNγ. The protocol: as §1
For another experiment, the target named is Syk (Homo sapiens (Human), UniProt P43405). The experiment can be described thus: Syk enzyme inhibition (FRET, Z-LYTE). The format is biochemical. A digest of the protocol:
as §2

The subject of the next experiment is d-U937 cells. Nature of the experiment: Accumulation of β catenin in d-U937 cells (assay m). The format is cell-based, human. Conditions: percentage relative to Reference Compound at 1 μg/mL. The method, boiled down:
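Read-out: colourimetric cell-based immunoassay for endogenous β-catenin (OD450 minus 655 reference), normalised to crystal violet absorbance at 595 nm. Test compound or vehicle was applied for 18 hr to U937 monocytes first differentiated with PMA (100 ng/mL) for 48–72 hr.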

pIC50: −log10 of the molar value. A value given as a limit tells only on which side of the number the result lay.

Sequence of c-Src (P12931 whole entry, looked up): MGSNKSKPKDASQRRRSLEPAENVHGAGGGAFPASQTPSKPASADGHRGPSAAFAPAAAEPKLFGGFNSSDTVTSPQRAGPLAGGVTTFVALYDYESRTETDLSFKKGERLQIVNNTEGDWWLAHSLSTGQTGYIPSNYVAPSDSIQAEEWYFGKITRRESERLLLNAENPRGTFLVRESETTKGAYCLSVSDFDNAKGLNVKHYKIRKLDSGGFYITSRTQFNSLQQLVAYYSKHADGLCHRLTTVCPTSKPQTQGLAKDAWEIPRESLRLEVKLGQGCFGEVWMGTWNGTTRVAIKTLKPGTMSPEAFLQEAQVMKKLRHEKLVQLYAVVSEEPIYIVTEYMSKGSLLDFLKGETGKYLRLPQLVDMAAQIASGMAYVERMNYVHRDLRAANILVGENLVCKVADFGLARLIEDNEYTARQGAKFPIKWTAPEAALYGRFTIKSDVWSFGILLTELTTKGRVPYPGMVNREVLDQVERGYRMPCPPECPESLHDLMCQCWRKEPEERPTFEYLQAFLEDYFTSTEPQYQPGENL
Sequence of GSK 3α (P49840 whole entry): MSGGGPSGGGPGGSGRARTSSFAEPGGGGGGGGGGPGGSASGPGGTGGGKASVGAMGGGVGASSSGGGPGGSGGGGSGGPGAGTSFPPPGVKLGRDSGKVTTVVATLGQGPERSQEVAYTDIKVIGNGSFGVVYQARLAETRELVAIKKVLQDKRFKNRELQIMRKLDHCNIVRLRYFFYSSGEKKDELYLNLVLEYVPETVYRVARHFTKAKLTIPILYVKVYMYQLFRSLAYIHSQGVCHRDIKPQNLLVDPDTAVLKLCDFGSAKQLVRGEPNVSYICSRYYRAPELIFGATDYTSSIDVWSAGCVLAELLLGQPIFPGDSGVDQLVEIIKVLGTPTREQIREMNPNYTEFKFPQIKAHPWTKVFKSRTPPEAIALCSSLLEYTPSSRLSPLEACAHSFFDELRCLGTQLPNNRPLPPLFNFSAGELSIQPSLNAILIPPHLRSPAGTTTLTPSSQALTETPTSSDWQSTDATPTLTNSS
Sequence of p38 MAPKα isoform (MAPK14) (Q16539 whole entry, canonical isoform): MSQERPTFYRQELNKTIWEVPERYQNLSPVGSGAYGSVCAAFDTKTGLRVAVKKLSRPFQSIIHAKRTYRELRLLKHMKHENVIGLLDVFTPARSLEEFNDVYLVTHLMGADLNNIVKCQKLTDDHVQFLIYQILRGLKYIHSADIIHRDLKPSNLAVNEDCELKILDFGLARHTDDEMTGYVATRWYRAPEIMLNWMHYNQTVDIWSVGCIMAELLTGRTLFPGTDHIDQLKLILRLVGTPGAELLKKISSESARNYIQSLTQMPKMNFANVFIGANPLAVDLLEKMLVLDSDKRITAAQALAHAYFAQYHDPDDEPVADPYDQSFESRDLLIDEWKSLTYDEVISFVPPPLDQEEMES

Regarding `COCCOCCOCCNC(=O)c1cc(Nc2cc(Oc3ccc(NC(=O)Nc4cc(C(C)(C)C)cc(S(C)(=O)=O)c4OC)c4ccccc34)ccn2)cc(OC)c1` [38(ab), 3-((4-((4-(3-(5-(tert-Butyl)-2-methoxy-3-(methylsulfonyl)phenyl)ureido)naphthalen-1-yl)oxy)pyridin-2-yl)amino)-5-methoxy-N-(2-(2-(2-methoxyethoxy)ethoxy)ethyl)benzamide], the pIC50 in experiment [1] is 7.30; at GSK 3α, 5.32; in the experiment on PBMCs [2], 6.50; at c-Src, 7.21; in the experiment on PBMCs [4], 8.85; with PBMCs [5], 7.96. The pIC50 on Syk was below 5.92. For the same compound, the inhibition at 5 µg/mL in the experiment with PBMCs [3] was determined as 30.7%.

With `COc1cc(Nc2cc(Oc3ccc(NC(=O)Nc4cc(C(C)(C)C)cc(CC(N)=O)c4OC)c4ccccc34)ccn2)cc(S(=O)(=O)C2CC2)c1` [38(ad), 2-(5-(tert-Butyl)-3-(3-(4-((2-((3-(cyclopropylsulfonyl)-5-methoxyphenyl)amino)pyridin-4-yl)oxy)naphthalen-1-yl)ureido)-2-methoxyphenyl)acetamide], the pIC50 in experiment [1] is 7.06; on GSK 3α it was 4.96; in the experiment on PBMCs [2] it was 6.67; against c-Src it was 6.81; in the experiment with PBMCs [4], 8.66; in the experiment on PBMCs [5], 7.96. On Syk, this compound showed a pIC50 below 5.86. Moreover, the inhibition at 5 µg/mL with PBMCs [3] came out at 14.5%.

Turning to `COc1cc(C#N)cc(Nc2cc(Oc3ccc(NC(=O)Nc4cc(C(C)(C)C)cc(CC(N)=O)c4OC)c4ccccc34)ccn2)c1` [38(ah), 2-(5-(tert-Butyl)-3-(3-(4-((2-((3-cyano-5-methoxyphenyl)amino)pyridin-4-yl)oxy)naphthalen-1-yl)ureido)-2-methoxyphenyl)acetamide], the pIC50 in experiment [1] is 6.21; at GSK 3α, 4.86; in the experiment on PBMCs [2], 6.46; on c-Src, 6.51; in the experiment with PBMCs [4], 8.64; with PBMCs [5], 7.97. At Syk, this compound showed a negative logarithm of the IC50 (pIC50) below 5.81. Further, in the experiment with PBMCs [3], the inhibition at 5 µg/mL is 6.7%.

On to `COc1cc(Nc2cc(Oc3ccc(NC(=O)Nc4cc(C(C)(C)C)cc(CC(N)=O)c4OC)c4ccccc34)ccn2)cc(S(=O)(=O)N(C)C)c1` [38(aj), 2-(5-(tert-Butyl)-3-(3-(4-((2-((3-(N,N-dimethylsulfamoyl)-5-methoxyphenyl)amino)pyridin-4-yl)oxy)naphthalen-1-yl)ureido)-2-methoxyphenyl)acetamide], for which the pIC50 in [1] was 6.53; on GSK 3α, below 4.88; in the experiment with PBMCs [2], 6.47; at c-Src, 6.66; in the experiment on PBMCs [4], 8.68; in the experiment on PBMCs [5], 8.02. The compound further had a pIC50 at Syk below 5.86. In the experiment with PBMCs [3], the inhibition at 5 µg/mL is -1%.

For the compound `COc1cc(Nc2cc(Oc3ccc(NC(=O)Nc4cc(C(C)(C)C)cc(S(C)(=O)=O)c4OC)c4ccccc34)ccn2)cc(C(=O)NCCN2CC[S+]([O-])CC2)c1` [38(an), 3-((4-((4-(3-(5-(tert-Butyl)-2-methoxy-3-(methylsulfonyl)phenyl)ureido)naphthalen-1-yl)oxy)pyridin-2-yl)amino)-5-methoxy-N-(2-(1-oxidothiomorpholino)ethyl)benzamide], the pIC50 in experiment [1] is 7.32; on GSK 3α, 5.44; with PBMCs [2] it was 7.09; at c-Src it was 7.62; with PBMCs [4], 8.42; in the experiment with PBMCs [5], 8.09. On Syk, this compound showed a pIC50 of 7.00. Moreover, the inhibition at 5 µg/mL in the experiment on PBMCs [3] turned out to be 30.1%.

For `COc1c(NC(=O)Nc2ccc(Oc3ccnc(NCc4ccccc4)n3)c3ccccc23)cc(C(C)(C)C)cc1P(C)(C)=O` [38(g), 1-(4-((2-(Benzylamino)pyrimidin-4-yl)oxy)naphthalen-1-yl)-3-(5-(tert-butyl)-3-(dimethylphosphoryl)-2-methoxyphenyl)urea], the pIC50 in [1] was 8.05; at GSK 3α it was 5.62; in the experiment on PBMCs [2], 5.79; with PBMCs [4], 8.48; in the experiment on PBMCs [5], 7.65. Further, the “% β-catenin induction” value in the experiment with d-U937 cells (test compound 1 μg/mL) is listed as 4.5%; with d-U937 cells (test compound 5 μg/mL), 24.5%; in the experiment on d-U937 cells (test compound 10 μg/mL) it was 38.0%. Besides, in the experiment on PBMCs [3], the inhibition at 5 µg/mL amounted to 28.8%.

On to `COCCOCCOCCNC(=O)c1cc(Nc2cc(Oc3ccc(NC(=O)Nc4cc(C(C)(C)C)cc(CNC(C)=O)c4OC)c4ccccc34)ccn2)cc(OC)c1` [38(y), 3-((4-((4-(3-(3-(Acetamidomethyl)-5-(tert-butyl)-2-methoxyphenyl)ureido)naphthalen-1-yl)oxy)pyridin-2-yl)amino)-5-methoxy-N-(2-(2-(2-methoxyethoxy)ethoxy)ethyl)benzamide], for which the pIC50 was 7.68 in [1]; 6.06 at GSK 3α; 7.55 in the experiment with PBMCs [2]; 7.82 against c-Src; 9.30 with PBMCs [4]; 8.10 in the experiment on PBMCs [5]. The pIC50 against Syk was 6.41. Also, the inhibition at 5 µg/mL in the experiment with PBMCs [3] is 65.7%.

For `COc1cc(Nc2cc(Oc3ccc(NC(=O)Nc4cc(C(C)(C)C)cc(P(C)(C)=O)c4OC)c4ccccc34)ccn2)cc(S(=O)(=O)N(C)CCCN2CCOCC2)c1` [79(d), 1-(5-tert-Butyl-3-dimethylphosphoryl-2-methoxy-phenyl)-3-[4-[[2-[3-methoxy-5-[methyl(3-morpholinopropyl)sulfamoyl]anilino]-4-pyridyl]oxy]-1-naphthyl]urea], the pIC50 is 7.41 in experiment [1]; 5.40 at GSK 3α; 6.20 in the experiment on PBMCs [2]; 6.66 against c-Src; 8.41 with PBMCs [4]; 7.84 in the experiment on PBMCs [5]. On Syk, this compound showed a pIC50 below 5.93. In addition, in the experiment with PBMCs [3], the inhibition at 5 µg/mL stood at 19.9%.

With `COc1c(NC(=O)Nc2ccc(Oc3ccnc(Nc4cc(C#N)cc(OCCCN5CCOCC5)c4)c3)c3ccccc23)cc(C(C)(C)C)cc1[S+](C)[O-]` (centres unmarked) [79(e), 1-(5-tert-Butyl-2-methoxy-3-methylsulfinyl-phenyl)-3-[4-[[2-[3-cyano-5-(3-morpholinopropoxy)anilino]-4-pyridyl]oxy]-1-naphthyl]urea], the pIC50 is 6.57 in [1]; 7.28 with PBMCs [2]; 7.09 against c-Src; 8.39 in the experiment on PBMCs [4]; 8.16 in the experiment on PBMCs [5]; below 5.92 against Syk. Also, in the experiment with PBMCs [3], the inhibition at 5 µg/mL stood at 72.4%.

On to `COCCOCCOCCNC(=O)c1cc(Nc2cc(Oc3ccc(NC(=O)Nc4cc(C(C)(C)C)cc([S+](C)[O-])c4OC)c4ccccc34)ccn2)cc(OC)c1` (centres unmarked) [Example 48, 3-((4-((4-(3-(5-(tert-Butyl)-2-methoxy-3-(methylsulfinyl)phenyl)ureido)naphthalen-1-yl)oxy)pyridin-2-yl)amino)-5-methoxy-N-(2-(2-(2-methoxyethoxy)ethoxy)ethyl)benzamide], for which the pIC50 in [1] was 7.60; on GSK 3α, 5.57; in the experiment on PBMCs [2], 6.94; on c-Src, 7.43; with PBMCs [4] it was 9.40; with PBMCs [5], 8.43. On Syk, this compound had a pIC50 below 5.91. Also, the inhibition at 5 µg/mL with PBMCs [3] is 35.6%.
